Consider 1 substance from US10323283B2, “Editing profiling of PDE8A pre-mRNA: use as specific biomarker of ADARs activities in human tissues to diagnose and to predict and assess therapeutic efficacy and/or efficiency or potential drug side effects” (ALCEDIAG, priority 2010, dated 2019).

Assay type in all cases: cell-based, human
In experiment [1] the test system is PDE8A pre-mRNA. In words: PDE8A pre-mRNA editing profile by nested RT-PCR and CE-SSCP in SH-SY5Y cells. The note with it: increased concentrations of IFNα, 48 hours. The protocol:
The SH-SY5Y Human neuroblastoma cell line was purchased from ECACC (ref 94030304, lot number 06H021). Cells were cultured in high glucose D-MEM medium (Sigma, ref D6546) supplemented with 10% dialysed FCS (PAA, ref A15-507, lot number A50708-0050), 2 mM Glutamine (Sigma, G7513) and a 1× mix of Antibiotic-Antimycotic Stabilized (Sigma, ref A5955) at 37° C. under a humidified atmosphere of 5% CO2. The day preceding hIFNα treatment, SH-SY5Y cells were plated in 8 different 6-well plates at a density of 7.10^5 cells/well. On the next day, culture medium was removed and cells were incubated for 48 hours with hIFNα at the correct concentration (PBL biomedical laboratories, ref 111001-1, lot number 3734). On the day of the experiment, the hIFNα stock solution (10^5 I.U/ml in sterile 1×D-PBS stocked at −80° C.) was thawed on ice and then extemporaneously diluted in D-MEM supplemented with FCS and Antibiotic-Antimycotic, at the final concentrations of […]. In each well, cells were treated with 2 ml of the working solution. Aliquots of the stock-solution were used only once. […]
Human total blood RNA was extracted with the PAXgene Blood RNA kit 50 (PreAnalytiX, ref 762174) according to manufacturer's instructions. […] Aliquots (5 μl) of the amplification products were used to check the quantity and the quality of amplicons on a 2% agarose analytic gel. […]

The subject of experiment [2] is ADAR1a-p150. The experiment in a line: Quantification of ADAR1a-p150 mRNA expression by real-time PCR in SH-SY5Y cells. The note with it: IFNα application during 24 hours. As for the experimental part:
(§1) The SH-SY5Y Human neuroblastoma cell line was purchased from ECACC (ref 94030304, lot number 06H021). Cells were cultured in high glucose D-MEM medium (Sigma, ref D6546) supplemented with 10% dialysed FCS (PAA, ref A15-507, lot number A50708-0050), 2 mM Glutamine (Sigma, G7513) and a 1× mix of Antibiotic-Antimycotic Stabilized (Sigma, ref A5955) at 37° C. under a humidified atmosphere of 5% CO2. The day preceding hIFNα treatment, SH-SY5Y cells were plated in 8 different 6-well plates at a density of 7.10^5 cells/well. […]
In order to quantify levels of ADAR1a mRNA expression in SH-SY5Y cells first-strand cDNA was synthesized by reverse transcription (as described above) and subjected to TaqMan quantitative Real-Time PCR analysis (Applied Biosystems,). The probe and primers used for the quantitative PCRs were from Applied Biosystems (Gene Expression Assays, Assay-On-Demand): • -ADAR1a: ref Hs 01020780_ml
Human GAPDH (product no. 4326317E; Applied Biosystems) was included in each multiplex PCR as an internal control. […] Quantitation of target gene expression in all samples was normalized to GAPDH expression by the equation Ct (target)−Ct (GAPDH)=ΔCt, where Ct is the threshold cycle number. The mean ΔCt value of samples from untreated cells was determined and used as a reference point for the samples corresponding to IFNα treated cells. […]
(In general: In qPCR the cycle at which signal appears reflects the starting amount.)

For experiment [3], the system named is PDE8A4 isoform of the protein. The experiment in a line: Western blot analysis of PDE8A protein concentrations in SH-SY5Y cells after IFNα. The note with it: IFNα application during 24 hours. The protocol:
as §1
After culture medium elimination, SH-SY5Y cells were washed two times with a phosphate buffer solution (PBS, Gibco Invitrogen Corporation), scraped and solubilized for 2 hr at 4° C. in solubilization buffer containing 150 mM NaCl, 5 mM EDTA, 1% Triton X-100, 0.1% sodium deoxycholate, 10 mM Tris-HCl [pH 8.0] and supplemented with protease inhibitors (1 mM phenylmethylsulfonyl fluoride, and one tablet of Complete™ mini protease inhibitors cocktail [Roche]). […] Proteins present in the supernatant (clear lysate) were quantified with a Qubit Fluorometer (Invitrogen, Q32857) and the Quant-IT Protein assay (Invitrogen, ref Q33211). […]
For orientation: Immunoblotting shows a protein as a band on a membrane.

As for interferon alpha [IFNα], the “proportions of isoform B in the editing profile of PDE8A RNA” value in experiment [1] is “relative increase”. The “RQ versus GAPDH of the ADAR1a-p150” value in experiment [2] is reported as “induced”. In addition, the “maximal effect on PDE8A4 isoform, % of the steady state concentration found in controls” value in experiment [3] (from best fit) is −47%. The “estimated EC 50% of the effect on PDE8A4 isoform concentration versus concentrations of IFNα” value in experiment [3] (western blot, ±SD, R^2 of the fit=0.7) is listed as 3.3±4.4 IU/ml.
